Here are results for nine molecules from patent US20240246968A1, “SMALL MOLECULE INHIBITORS OF KRAS G12C MUTANT” (Merck Sharp & Dohme LLC, priority 2021, published 2024).

In one assay the test system is MIA PaCa-2 cells. Put plainly: Growth inhibition activity on KRAS-G12C mutant cell line (MIA PaCa-2), CellTiter-Glo 3D. Type of assay: cell-based, human. The note with it: MIA PaCa-2, 3-day culture with compound. As to the method:
MIA PaCa-2 cells (given by Sumitomo Dainippon Pharma Co., Ltd.), which are a KRAS-G12C mutant human pancreas cancer cell line, were suspended in a 10% fetal bovine serum-containing RPMI1640 medium (manufactured by Fujifilm Wako Pure Chemical Corporation.). The cell suspension was seeded into each well of a 384-well U bottom microplate and cultured in an incubator containing 5% CO2 gas at 37° C. for 1 day. The compounds obtained in the “Preparation of Compounds” section were used as test compounds and were dissolved in DMSO, respectively, and each test compound was diluted with DMSO to give a concentration 500 times the final concentration. The resultant solution of the test compound in DMSO was diluted with the medium used for suspending cells and added to each well of the cell-culture plate to give a DMSO final concentration of 0.2%, followed by culture in an incubator containing 5% CO2 gas at 37° C. for another 3 days. The cell count after 3-day culture in the presence of the test compound was measured using CellTiter-Glo 3D Reagent (manufactured by Promega Corporation). All wells were added with CellTiter-Glo 3D Reagent and mixed for 10 minutes. 30 minutes after mixing, luminescence was measured by a plate reader. The growth inhibition rate was calculated from the following equation, and the concentration of the test compound at which 50/o inhibition was achieved (IC50 (nM)) was determined. The following tables show the results.
[formula] • T: the emission intensity in a well into which a test compound was added. • C: the emission intensity in a well into which a test compound was not added.
A general note: Cellular ATP, detected with luciferase, serves as a proxy for viable cell number.

In assay [1] the target is Gppcp-bound recombinant K-Ras4B G12C mutant protein (amino acids 1-169, C51S/C80L/C118S) (Homo sapiens, UniProt P01116, C118S/C51S/C80L/G12C). Put plainly: KRASG12C binding assay (LC-MS, compound binding rate). The following applies: test compound final concentration 0.5 μM, 25° C., 1 hour. As to the method:
As test compounds for the KRASG12C binding assay, the compounds obtained in the “Preparation of Compounds” section were used. Sample solutions each containing a test compound were prepared in the form of a 10 mM DMSO solution.
Gppcp-bound recombinant K-Ras4B G12C mutant protein (amino acids 1-169, C51S/C80L/C118S, SEQ ID NO:1) was diluted with a buffer (1×TBS, 0.1 mM TCEP, 0.25 mM MgCl2, 50 μM Gppcp) to prepare a 50 nM protein solution. K-Ras4B is the major splicing variant of K-Ras. Amino acid sequence of residues 1 to 150 including the compounds' binding region of K-Ras4B is exactly same as that of K-Ras4A, the other splicing variant (Oncotarget. 2016 Jul. 19; 7(29): 46717-46733). A sample solution containing 10 mM test compound was diluted ten-fold with DMSO to make a 1 mM sample solution, and then diluted twenty-fold with DMSO to make a 50 μM sample solution. 1 μL of a 50 μM sample solution was added to 100 μL of a 50 nM protein solution to adjust the final concentration of a test compound to be 0.5 μM in the mixture. The mixtures were stored in an incubator at 25° C. for 1 hour, and 10 μL of a 1×TBS solution containing 2% formic acid was added to stop the reaction, followed by LC-MS measurement. LC-MS measurement was performed using Xevo G2-S Q-Tof manufactured by Waters, and reverse-phase chromatography was performed with a desalting column. A mass spectrum of positive ions was obtained by electrospray. For a mass spectrum, a spectrum of polyvalent ions was collectively converted to a molecular weight by using OpenLynx software by the MaxEnt technique, and a compound binding rate was calculated from the ratio of the signal intensity of a peak that corresponds to the molecular weight of the protein to the signal intensity of a peak that corresponds to the molecular weight of the protein conjugated with the compound.
The binding assay of the test compounds was conducted at a final concentration of 0.5 μM. A binding rate of 80% or more is rated “A”, a binding rate of 60% or more and less than 80% is rated “B”, a binding rate of 40% or more and less than 60% is rated “C”, a binding rate of 20% or more and less than 40% is rated “D”, and a binding rate of less than 20% is rated “E”. N.D.=not determined. Binding rate % is the ratio of KRAS signal intensity at the molecular weight of one molecule adduct to the sum of all the KRAS signal intensity (unbound form and adducts) in mass spectrum. Thus, binding rate 100% means that only the one molecule adduct was observed without any unbound KRAS. The following tables show the results.

The target in assay [2] is T1, interaction between recombinant K-Ras4B G12C mutant protein and cRAF RAS-binding domain (cRAF-RBD) (Homo sapiens, UniProt P01116, G12C).
T1 construct: made in house; host or cells: E. coli
Put plainly: Inhibitory activity on interaction between KRAS G12C and cRAF (Alpha technology). Type of assay: biochemical. The note with it: GMPPNP-bound KRAS G12C incubated with compound at 25° C. for 1 hour, then cRAF-RBD; Alpha signal. As to the method: Interaction between recombinant K-Ras4B G12C mutant protein (amino acids 1-169, SEQ ID NO:2) and cRAF RAS-binding domain (cRAF-RBD, amino acids 50-132, Jena Biosciences GmbH) was measured using Alpha technology (PerkinElmer Inc.).
Recombinant KRAS G12C protein with an N-terminal His-tag was expressed in E. coli and purified by affinity chromatography. To prepare GTP-bound form and GDP-bound form of KRAS G12C protein. 50 μM KRAS G12C protein was incubated with 1 mM GMPPNP (Guanosine-5′-[(β,γ)-imido]triphosphate. Tetralithium salt)(Jena Bioscience GmbH) and 1 mM GDP, respectively, in a loading buffer (20 mM Tris-HCl (pH 7.5), 50 mM NaCl, 1 mM DTT and 2.5 mM EDTA) for 1 hour on ice. After the incubation, MgCl2 was added to a final concentration of 10 mM, followed by incubation at room temperature for 30 minutes. The mixture was allowed to pass through a NAP-5 column to remove free nucleotides and purified, and the resultant nucleotide-bound KRAS G12C protein was used for compound evaluation.
For the measurement of the inhibitory activity of compounds on interaction between KRAS G12C and cRAF-RBD, GMPPNP-bound KRAS G12C protein was incubated with various concentrations of compound in a reaction buffer (20 mM Tris-HCl (pH 7.5), 100 mM NaCl, 1 mM MgCl2, 1 mM TCEP. 0.1% Tween 20) at 25° C. for 1 hour. After the incubation, recombinant cRAF-RBD and Alpha detection reagents were added and incubated at room temperature for 1.5 hours for binding. Interaction of KRAS G12C and cRAF-RBD was monitored by measuring Alpha signal. Inhibition % was calculated using the signal from the reaction without test compound (DMSO control) as 0% inhibition and the signal from the reaction using GDP-bound KRAS G12C in place of GMPPNP-bound KRAS G12C as 100% inhibition. IC50 values were calculated from dose titration curve using curve fitting by XLfit software (IDBS). The following tables show the results.

The structures appear in SMILES notation.

One may read the IC50 as the concentration that inhibits the measured activity by half.

Regarding `CCc1cc2c(nc(C)n2C)c(Cl)c1-c1cccn2c(C(=O)c3cc(F)c(NC(=O)/C=C/CN[C@H]4CC[C@H](OC)CC4)c(F)c3)ccc12` (single isomer, unassigned) [Example 22-1, (E)-N-(4-(8-(4-chloro-6-ethyl-1,2-dimethyl-1H-benzo[d]imidazol-5-yl)indolizine-3-carbonyl)-2,6-difluorophenyl)-4-(((1r,4r)-4-methoxycyclohexyl)amino)but-2-enamide], the values for the IC50 (with MIA PaCa-2 cells; in assay [2]) were 72 nM and 23 nM, respectively. In addition, in assay [1], the binding rate entry was “A (A binding rate of 80% or more is rated “A”)”.

In the case of `CCc1cc2c(nc(C)n2C)c(Cl)c1-c1cccn2c(C(=O)c3cc(F)c(NC(=O)/C=C/CN[C@H]4CC[C@H](OC)CC4)c(F)c3)ccc12` (single isomer, unassigned) [Example 22-2, (E)-N-(4-(8-(4-chloro-6-ethyl-1,2-dimethyl-1H-benzo[d]imidazol-5-yl)indolizine-3-carbonyl)-2,6-difluorophenyl)-4-(((1r,4r)-4-methoxycyclohexyl)amino)but-2-enamide], the concentration for half-maximal inhibition (IC50) in the assay on MIA PaCa-2 cells was 410 nM; in assay [2], 110 nM. Also, the binding rate entry in assay [1] was “A (A binding rate of 80% or more is rated “A”)”.

For `Cc1cc2c(ncn2C)c(Cl)c1-c1cccn2c(C(=O)c3cc(F)c(NC(=O)/C=C/CNC4CCOCC4)c(F)c3)ccc12` (single isomer, unassigned) [Example 27-1, (E)-N-(4-(8-(4-chloro-1,6-dimethyl-1H-benzo[d]imidazol-5-yl)indolizine-3-carbonyl)-2,6-difluorophenyl)-4-((tetrahydro-2H-pyran-4-yl)amino)but-2-enamide], the IC50 was 120 nM in the assay on MIA PaCa-2 cells and 25 nM in assay [2]. Further, the binding rate result in assay [1] was “A (A binding rate of 80% or more is rated “A”)”.

Consider `Cc1cc2c(ncn2C)c(Cl)c1-c1cccn2c(C(=O)c3cc(F)c(NC(=O)/C=C/CNC4CCOCC4)c(F)c3)ccc12` (single isomer, unassigned) [Example 27-2, (E)-N-(4-(8-(4-chloro-1,6-dimethyl-1H-benzo[d]imidazol-5-yl)indolizine-3-carbonyl)-2,6-difluorophenyl)-4-((tetrahydro-2H-pyran-4-yl)amino)but-2-enamide], for which the IC50 in the assay with MIA PaCa-2 cells turned out to be 530 nM; in assay [2] it was 120 nM. In addition, the binding rate result in assay [1] was “A (A binding rate of 80% or more is rated “A”)”.

`CO[C@H]1CC[C@H](NC/C=C/C(=O)Nc2c(F)cc(C(=O)c3ccc4c(-c5c(C(F)(F)F)cc6c(ncn6C)c5Cl)cccn34)cc2F)CC1` (single isomer, unassigned) [Example 28-1, (E)-N-(4-(8-(4-chloro-1-methyl-6-(trifluoromethyl)-1H-benzo[d]imidazol-5-yl)indolizine-3-carbonyl)-2,6-difluorophenyl)-4-(((1r,4r)-4-methoxycyclohexyl)amino)but-2-enamide]: the IC50 in the assay on MIA PaCa-2 cells was 51 nM; in assay [2] it was 31 nM. In assay [1], the binding rate entry was “A (A binding rate of 80% or more is rated “A”)”.

On to `CO[C@H]1CC[C@H](NC/C=C/C(=O)Nc2c(F)cc(C(=O)c3ccc4c(-c5c(C(F)(F)F)cc6c(ncn6C)c5Cl)cccn34)cc2F)CC1` (single isomer, unassigned) [Example 28-2, (E)-N-(4-(8-(4-chloro-1-methyl-6-(trifluoromethyl)-1H-benzo[d]imidazol-5-yl)indolizine-3-carbonyl)-2,6-difluorophenyl)-4-(((1r,4r)-4-methoxycyclohexyl)amino)but-2-enamide], for which the results for the IC50 (in the assay on MIA PaCa-2 cells; in assay [2]) were 940 nM and 800 nM, respectively. Also, the binding rate result in assay [1] was “A (A binding rate of 80% or more is rated “A”)”.

As to `COc1cc(N2CCCC2=O)cc(Cl)c1-c1cccn2c(C(=O)c3cc(F)c(NC(=O)/C=C/CN[C@H]4CC[C@H](OC)CC4)c(F)c3)ccc12` (single isomer, unassigned) [Example 30-1, (E)-N-(4-(8-(2-chloro-6-methoxy-4-(2-oxopyrrolidin-1-yl)phenyl)indolizine-3-carbonyl)-2,6-difluorophenyl)-4-(((1r,4r)-4-methoxycyclohexyl)amino)but-2-enamide], the IC50 came out at 360 nM in the assay with MIA PaCa-2 cells and 130 nM in assay [2]. In addition, the binding rate entry in assay [1] was “A (A binding rate of 80% or more is rated “A”)”.

Take `COc1cc(N2CCCC2=O)cc(Cl)c1-c1cccn2c(C(=O)c3cc(F)c(NC(=O)/C=C/CN[C@H]4CC[C@H](OC)CC4)c(F)c3)ccc12` (single isomer, unassigned) [Example 30-2, (E)-N-(4-(8-(2-chloro-6-methoxy-4-(2-oxopyrrolidin-1-yl)phenyl)indolizine-3-carbonyl)-2,6-difluorophenyl)-4-(((1r,4r)-4-methoxycyclohexyl)amino)but-2-enamide]: the IC50 with MIA PaCa-2 cells was found to be 120 nM; in assay [2] it was 61 nM. Also, the binding rate entry in assay [1] was “A (A binding rate of 80% or more is rated “A”)”.

`CO[C@H]1CC[C@H](NC/C=C/C(=O)Nc2c(F)cc(C(=O)c3ccc4c(-c5c(C(F)(F)F)cc6c(nc(C)n6C)c5Cl)cccn34)cc2F)CC1` (single isomer, unassigned) [Example 32-1, (E)-N-(4-(8-(4-chloro-1,2-dimethyl-6-(trifluoromethyl)-1H-benzo[d]imidazol-5-yl)indolizine-3-carbonyl)-2,6-difluorophenyl)-4-(((1r,4r)-4-methoxycyclohexyl)amino)but-2-enamide]: the IC50 is 14 nM in the assay with MIA PaCa-2 cells and 21 nM in assay [2]. Besides, the binding rate entry in assay [1] is “A (A binding rate of 80% or more is rated “A”)”.
